For data set [1] the following is noted: in water at 20° C.; cited from earlier work.
The conditions of data set [2]: rat.
Method: Seven budesonide formulations were assessed for the ability to cross the lung by perfusion on an isolated lung perfusion system. LC-MS/MS was utilized to measure budesonide concentration in perfusate samples collected for up to approximately 123 minutes after intratracheal (IT) administration of the representative formulations to male Sprague-Dawley rats. The mass of budesonide remaining in the lung was also measured at the terminus of the procedure.
After release from quarantine, the study animals were euthanized with an IP injection of a barbiturate (minimum 150 mg/kg pentobarbital). The trachea, pulmonary artery and left ventricle were cannulated and the heart/lung bloc was removed from the thoracic cavity. The heart/lung bloc was placed in an artificial thoracic cavity (Hugo Sachs Electronik-Harvard). The budesonide suspension test formulations were administered by intratracheal installation at a volume of 40-100 μL. Following test formulation delivery, fractionated single pass perfusate samples were collected over a 2 hour period. The concentration of budesonide in the perfusate and lung tissue was determined by Liquid Chromatography-Mass Spectrometry (LC-MS/MS).
The test formulations contained in single unit dose vials (1.5 ml or 2 ml) were inverted several times before being transferred to a secondary container. Bulk formulations were diluted in saline and were gently swirled, and then aliquots of 40-100 μl were drawn up in a syringe and installed IT into the isolated perfused lung model directly through a cannula placed at the top of the trachea.
The Study animals were euthanized with an overdose of pentobarbital. During necropsy, the trachea and lungs were excised from the rat and placed on the IPL system cannula. The lungs were ventilated with room air at a rate of 60 breaths per minute by negative pressure ventilation. Chamber pressures were adjusted to reach target goals of a tidal volume of 2.5 ml and a peak expiratory flow of 12 ml/sec.
Single pass perfusate samples were collected over a 60-120 minute period. Perfusate samples were fractionated into 17 samples collected at approximately (min): 0.67; 1.3; 2.7; 4; 6; 8; 10; 12.5; 15; 22; 29; 36; 43; 63; 83; 103; and 123.
Perfusate and lung tissue samples were stored at −80° C. prior to subsequent analysis by LC-MS/MS. During operation of the isolated perfused lung (IPL) system pressure and flow recordings were collected using EMKA (version 2.5) software. […] Data was reduced to 5 minute data points for the purposes of statistical comparisons. Mean and standard error were performed on the perfusate and lung tissue concentrations using Microsoft Excel software. Pharmacokinetic properties were evaluated by WinNonlin software (Version 5.0.1, Pharsight Corporation, Sunnyvale, Calif. 94086).

Take `ClCCl` [dichloromethane]: the water solubility in data set [1] was 13 grams/liter.
A word on the Tmax: it is the time from dosing to the highest level. “budesonide [Group-3, reference compound]”: the Tmax in data set [2] was 1.3 min.
One may read the Cmax as the peak of the concentration-time curve. On to “budesonide [Group-1, reference compound]”, for which, in data set [2], the Cmax amounted to 104.5 ng/mL and the Tmax amounted to 1.3 min.
For the molecule “budesonide [Group-2, reference compound]”, the Tmax in data set [2] amounted to 1.3 min.
For `CC(=O)OC(C)C` [isopropyl acetate], the water solubility in data set [1] was 43 grams/liter.
In the case of `CCOCC` [diethyl ether], in data set [1], the water solubility is 69 grams/liter.
Take `CC(=O)CC(C)C` [methyl isobutyl ketone]: the water solubility in data set [1] was 19 grams/liter.
As to budesonide [Group-4], the peak concentration (Cmax) in data set [2] was found to be 146.4 ng/mL.
As to `CCOC(C)=O` [ethyl acetate], the water solubility in data set [1] is given as 83 grams/liter.
“budesonide [Group-5, reference compound]”: in data set [2], the Tmax was 1.3 min.

These data come from patent publication US20140120165A1, “CORTICOSTEROID PARTICLES AND METHOD OF PRODUCTION” (priority 2010, published 2014).
